Residues, ends and D or L forms follow the SMILES beside them. *: point of attachment. Cbz = O=C(OCc1ccccc1)*; CH2F = FC*
Key:
Assay type in all cases: cell-based, human
[1] = system: p21; experiment: p21 expression by fluorescence microscopy and immunoblot; conditions: HCT116 treated with XR alone or GdBN+XR
Experimental: (§1) HCT116 cells were seeded in 6-well plates and incubated at 37° C. during 1 hour with indicated concentrations of GdBN. Then, cells were irradiated with X-ray irradiator (1 Gy/min, 200 keV, 15 mA, 2 mm copper thickness, X-RAD 320, Precision X-Ray) or with gamma-ray irradiator (IBL-637, Cs^137, 1 Gy/min, gamma CIS-BioInternational, IBA, Saclay, France). Cells were harvested at indicated time points after irradiation for subsequent experiments. Cellular cannibalism was determined as previously described^13. […] Cells are then co-cultured for the indicated time, in presence of the pharmacological inhibitor of ROCK, Y27632 (30 μM, TOCRIS) or the pan-caspase inhibitor, zVAD-fmk (100 μM, Calbiochem). […] Cells were counterstained with Hoechst 33342 (Invitrogen) and analyzed by fluorescent confocal microscopy on a Zeiss LSM510 or by fluorescent microscopy on a LEICA DMi8 using a 63× objective. […] Cytofluorometric determinations were carried out on Guava EasyCyte (Millipore EMD) and data were analyzed by means with Incyte software (Millipore). Cell cycle distributions were assessed with 10 μg/ml of Hoechst 33342 (Invitrogen), as previously described^14. Cell fluorescence was quantified using LSR II™ flow cytometer (Becton-Dickinson). Fluorescence histograms were analyzed with Kaluza software version 1.5. […]

[2] = system: ROCK1; experiment: ROCK1 activation by immunoblot of MLC2 serine 19 phosphorylation (MLC2S19*); conditions: 30 μM Y27632, 24 hours; XR- or GdBN+XR-treated HCT116
Experimental: Total cell lysates were prepared in lysis buffer (0,1% NP40 ; 200 mM HEPES ; 100 mM KCl; 1 mM EDTA; 1% Glycerol final concentration) supplemented with proteases and phosphatases inhibitors cocktail (EDTA-free inhibitors, Roche-diagnostics, Meylan, France). Protein extracts were quantified using the Bradford assay (Bio-Rad Laboratories, Hercules, Calif., USA). Protein extracts (20-40 μg) were run onto 4-12% NuPAGE Bis-tris gel (Invitrogen) and transferred onto nitrocellulose membrane at 4° C.

[3] = system: HCT116 cells; experiment: Cellular cannibalism (cell engulfment) in CMTMR/CMFDA co-culture, confocal microscopy
Experimental: as §1

[4] = system: HCT116 cells; experiment: Engulfed (target) cell degradation: chromatin condensation and nuclear fragmentation by fluorescence microscopy; conditions: 100 μM Z-VAD-fmk; XR or GdBN+XR
Experimental: Cellular cannibalism was determined as previously described^13. Briefly, treated cells were stained with 10 μM of 5-(and-6)-(((4-Chloromethyl)Benzoyl)Amino)Tetramethylrhodamine (Cell Tracker Orange CMTMR, Invitrogen) and untreated cells were stained with 10 μM of 5-chloromethylfluorescein diacetate (Cell tracker Green CMFDA, Invitrogen). Cells are then co-cultured for the indicated time, in presence of the pharmacological inhibitor of ROCK, Y27632 (30 μM, TOCRIS) or the pan-caspase inhibitor, zVAD-fmk (100 μM, Calbiochem). […] Cells were counterstained with Hoechst 33342 (Invitrogen) and analyzed by fluorescent confocal microscopy on a Zeiss LSM510 or by fluorescent microscopy on a LEICA DMi8 using a 63× objective. […] Cytofluorometric determinations were carried out on Guava EasyCyte (Millipore EMD) and data were analyzed by means with Incyte software (Millipore). Cell cycle distributions were assessed with 10 μg/ml of Hoechst 33342 (Invitrogen), as previously described^14. Cell fluorescence was quantified using LSR II™ flow cytometer (Becton-Dickinson). Fluorescence histograms were analyzed with Kaluza software version 1.5. […]

**Q.** For `O=C(O)c1ccc(-c2c3nc(c(-c4ccc(C(=O)O)cc4)c4ccc([n-]4)c(-c4ccc(C(=O)O)cc4)c4nc(c(-c5ccc(C(=O)O)cc5)c5ccc2[n-]5)C=C4)C=C3)cc1.[Mn+3]` [MnTBAP, Manganese (III)-tetrakis(4-benzoic acid) porphyrin], which “effect on cellular senescence (p21 expression, immunoblot)” value ([1]; 10 μM MnTBAP) is on record?
**A.** Its value is “reduced the cellular senescence”.

**Q.** With `CC(=O)N[C@@H](CS)C(=O)O` [NAC, N-acetylcysteine] as the molecule, how does the “effect on cellular senescence (p21 expression, immunoblot)” value ([1]; 100 μM NAC) read?
**A.** The value was “reduced the cellular senescence”.

**Q.** What does the source list for `C[C@@H](N)[C@H]1CC[C@H](C(=O)Nc2ccncc2)CC1` [Y27632]?
**A.** inhibition of ROCK1 (MLC2S19* immunoblot) [2]: inhibition of ROCK1; effect on cellular cannibalism ([3]; 30 μM Y27632, after 6 Gy alone and after 6 Gy with 1.2 mM GdBN, 24 hours co-culture): inhibited the cellular cannibalism

**Q.** For `COC(=O)C[C@H](NC(=O)[C@H](C)NC(=O)[C@@H](NC(=O)OCc1ccccc1)C(C)C)C(=O)CF` [Z-VAD-fmk, benzyloxycarboxyl-Val-Ala-Asp (OMe) fluoromethylketone] (Cbz-Val-Ala-Asp(OMe)-CH2F), which “effect on target cell degradation” value [4] is on record?
**A.** The value was “failed to repress target cell degradation”.

**Q.** What about the “effect on cellular engulfment” value ([3]; 100 μM Z-VAD-fmk, after XR or GdBN+XR, 24 h culture) of the same molecule?
**A.** Its value is “not inhibited”.
